Measurements from the supplement of paper PMC10307832.

How the values were obtained:
Experiment in all cases: relative viability (nuclei count vs DMSO), 5 days (fraction); higher = more cells survive
Cediranib + Alpelisib = compound: COc1cc2c(Oc3ccc4[nH]c(C)cc4c3F)ncnc2cc1OCCCN1CCCC1 [Cediranib] + Cc1nc(NC(=O)N2CCC[C@H]2C(N)=O)sc1-c1ccnc(C(C)(C)C(F)(F)F)c1 [Alpelisib] (partner 2 µM)
Procedure, shortened: (§1)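 Lung cancer cell lines were pin-tool dosed in 1536-well plates on the day after seeding, with either a lone drug or a fixed anchor-drug dose plus five library-drug doses (not always all listed) in √10 steps. Nuclei were counted on 4× images after 5 days. Relative viability is the ratio of treated-well to vehicle-well nuclei counts, with each value a median of duplicate plates.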

Cediranib + Olaparib = compound: COc1cc2c(Oc3ccc4[nH]c(C)cc4c3F)ncnc2cc1OCCCN1CCCC1 [Cediranib] + O=C(c1cc(Cc2n[nH]c(=O)c3ccccc23)ccc1F)N1CCN(C(=O)C2CC2)CC1 [Olaparib] (partner 8 µM)
Procedure, shortened: as §1

Decitabine + Bortezomib = compound: Nc1ncn([C@H]2C[C@H](O)[C@@H](CO)O2)c(=O)n1 [Decitabine] + CC(C)C[C@H](NC(=O)[C@H](Cc1ccccc1)NC(=O)c1cnccn1)B(O)O [Bortezomib] (partner 0.002 µM)
Procedure, shortened: as §1

[1] = compound: O=C(C[C@H]1NCCC[C@@H]1O)Cn1cnc2cc(Br)c(Cl)cc2c1=O (racemic) [Halofuginone] + Nc1nc2[nH]cc(CCc3ccc(C(=O)N[C@@H](CCC(=O)O)C(=O)O)cc3)c2c(=O)[nH]1 [Pemetrexed] (partner 0.2 µM)
Procedure, shortened: as §1

Cell Line	relative viability (Cediranib + Alpelisib; first compound 0.04 µM)	relative viability (Cediranib + Alpelisib; first compound 0.1265 µM)	relative viability (Cediranib + Alpelisib; first compound 0.4 µM)	relative viability (Cediranib + Alpelisib; first compound 1.265 µM)	relative viability (Cediranib + Alpelisib; first compound 4 µM)	relative viability (Cediranib + Olaparib; first compound 0.04 µM)	relative viability (Cediranib + Olaparib; first compound 0.1265 µM)	relative viability (Cediranib + Olaparib; first compound 0.4 µM)	relative viability (Cediranib + Olaparib; first compound 1.265 µM)	relative viability (Cediranib + Olaparib; first compound 4 µM)	relative viability (Decitabine + Bortezomib; first compound 0.04 µM)	relative viability (Decitabine + Bortezomib; first compound 0.1265 µM)	relative viability (Decitabine + Bortezomib; first compound 0.4 µM)	relative viability (Decitabine + Bortezomib; first compound 1.265 µM)	relative viability (Decitabine + Bortezomib; first compound 4 µM)	relative viability ([1]; first compound 0.001 µM)	relative viability ([1]; first compound 0.003162 µM)	relative viability ([1]; first compound 0.01 µM)	relative viability ([1]; first compound 0.03162 µM)	relative viability ([1]; first compound 0.1 µM)
201T	1.03	1.24	1.04	0.992	1.03	0.805	0.862	0.808	0.829	0.828	1.11	1.09	1.15	1	1.03	0.31	0.329	0.346	0.311	0.313
A549	0.698	0.947	0.654	0.701	0.869	0.353	0.23	0.302	0.333	0.473										
A-427	1.04		1.08	1.01	1.08	0.802		0.668	0.67	0.753	0.769	0.571	0.247	0.271	0.242	1	1.03	0.945	0.946	0.887
ABC-1	1.06	1.01	1.04		1.07	0.875	0.997	0.823	1.14	0.726	0.286	0.239	0.315	0.23	0.228					
BEN	1.17	0.814	0.906	1.04	0.953	1.11	0.613	1.05	1.13	1.04	0.779	0.779	0.539	0.427	0.481	0.871	0.618	0.788	0.647	0.551
CAL-12T	1.38	1.13	1.05	1.26	1.13	0.815	0.646	0.647	0.74	0.786	0.828	1.01	0.535	0.558	0.543	1.17	1.08	1.3	0.953	0.72
COR-L23	0.916	0.788	0.816	0.829	0.815	0.429	0.333	0.291	0.377	0.309	0.695	0.703	0.42	0.316	0.234	0.212	0.19	0.2	0.192	0.183
COR-L 105		1.14	0.862	1.14	1.1	0.737	0.657	0.715	0.707	0.687	0.463	0.65	0.378	0.494	0.422	1.09	1.05	0.973	0.981	0.964
Calu-6	1.06	1.01	0.991	0.935	1.04	0.592	0.566	0.599	0.582	0.56	0.853	0.67	0.43	0.373	0.321					
ChaGo-K-1						0.403	0.307	0.403	0.424	0.41	0.768	0.756	0.579	0.585	0.566	0.297	0.254	0.251	0.256	0.258
EBC-1	0.857	1.01	0.762	0.719	1.02	0.715	0.744	0.668	0.786	0.88	0.395	0.406	0.29	0.268	0.257					
EKVX	0.961	1.2	0.849	0.879	0.836	0.783	0.949	0.803		0.851	0.71	0.776	0.798	0.383	0.381	0.42	0.474	0.396	0.409	0.416
EMC-BAC-2	0.788	0.796	0.707	0.728	0.801	0.474		0.476	0.502	0.402	1.04	1.13	0.754	0.747	0.632	0.482	0.462	0.486	0.524	0.438
EPLC-272H	1.06		0.962	0.97	1	0.896	0.831	0.8	0.964	0.688	0.884	0.57		0.584	0.418	0.42	0.359	0.308	0.345	0.358
H3255	0.785	0.754	0.691	0.622	0.61	0.524	0.503	0.564	0.643	0.542	0.294	0.751	0.479	0.521	0.705	0.585	0.587	0.565	0.57	0.567
HARA	0.844	1.14	0.837	0.857	1.01	0.626	1.22	0.675	1.01	0.692	0.819	0.7	0.511	0.431	0.308	0.228	0.231	0.283	0.247	0.222
HCC-15	0.961		0.827	0.933	0.961	0.706		0.705	0.759	0.759	0.936	0.891	0.381	0.467	0.493	0.214	0.248	0.226	0.231	0.235
HCC-44	0.754		0.731	0.784	0.898	0.966	0.894	0.963	0.932	0.974	0.821	0.898	0.536	0.602	0.548	0.697	0.654	0.619	0.622	0.621
HCC-78	0.361	0.379	0.323	0.386	0.287	0.963	1.01	0.83	0.96	1.04	0.52	0.517	0.435	0.385	0.328	0.906	0.926	0.885	0.937	0.889
HCC-366	0.402	0.316	0.363	0.401	0.388	0.413	0.354	0.392	0.362	0.395	0.971	0.788	0.421	0.197	0.121	0.157	0.167	0.156	0.135	0.12

Cell Line	relative viability (Cediranib + Alpelisib; first compound 0.04 µM)	relative viability (Cediranib + Alpelisib; first compound 0.1265 µM)	relative viability (Cediranib + Alpelisib; first compound 0.4 µM)	relative viability (Cediranib + Alpelisib; first compound 1.265 µM)	relative viability (Cediranib + Alpelisib; first compound 4 µM)	relative viability (Cediranib + Olaparib; first compound 0.04 µM)	relative viability (Cediranib + Olaparib; first compound 0.1265 µM)	relative viability (Cediranib + Olaparib; first compound 0.4 µM)	relative viability (Cediranib + Olaparib; first compound 1.265 µM)	relative viability (Cediranib + Olaparib; first compound 4 µM)	relative viability (Decitabine + Bortezomib; first compound 0.04 µM)	relative viability (Decitabine + Bortezomib; first compound 0.1265 µM)	relative viability (Decitabine + Bortezomib; first compound 0.4 µM)	relative viability (Decitabine + Bortezomib; first compound 1.265 µM)	relative viability (Decitabine + Bortezomib; first compound 4 µM)	relative viability ([1]; first compound 0.001 µM)	relative viability ([1]; first compound 0.003162 µM)	relative viability ([1]; first compound 0.01 µM)	relative viability ([1]; first compound 0.03162 µM)	relative viability ([1]; first compound 0.1 µM)
HCC-827	1.06		0.957	0.985	0.926	0.466	0.62	0.661	0.617	0.646	0.748	0.567	0.399	0.36	0.372	0.238	0.237	0.266	0.27	0.239
HOP-62	1.16		0.74	0.96	1.18	0.385		0.425	0.503	0.688	0.418	0.23	0.23	0.0953	0.0952	0.326	0.293	0.333	0.306	0.295
IA-LM	0.845	0.959	0.928	0.592	0.655	0.993	0.848	0.824	0.867	1.02	0.44	0.54	0.257	0.172	0.185					
LK-2	1.36	1.01	1.13	1.11	0.475	0.67	0.334	0.681	0.802	0.733						0.25	0.212	0.294	0.249	0.241
NCI-H358	1.04	1.05	0.745	0.996	0.926	0.659	0.66	0.503	0.64	0.666						0.171	0.167	0.167	0.154	0.138
NCI-H522						0.685	0.631	0.678	0.69	0.646						1.08	0.968	1.03	1.11	0.918
NCI-H727	0.452	0.59	0.55	0.624	0.551	0.656	0.679	0.684	0.728	0.73	0.697	0.672	0.382	0.605	0.418					
NCI-H1299	1.09	1.03	1.01	1.04	1.14	0.999	0.96	0.92	0.949	0.97	1.01	0.988	0.965	0.867	0.865					
NCI-H1395	0.947		1.01	1.04	1.04	0.472	0.448	0.474	0.541	0.42						0.873	0.822	0.991	0.696	0.571
NCI-H1563	0.988	0.898	0.967	0.949	0.761						0.801	1.02	1.16	0.987	0.908	0.782	0.788	0.825	0.685	0.585
NCI-H1648						0.519	0.824	0.901	1.2	1.31						0.666	0.732	0.92	0.796	0.91
NCI-H1650						0.825	0.801	0.771	0.707	0.845	0.18	0.166	0.185	0.201	0.187	0.339	0.388	0.375	0.325	0.284
NCI-H1703	0.264	0.337	0.218	0.205	0.169	0.389	0.388	0.173	0.163	0.243	0.243	0.258	0.2	0.182	0.176					
NCI-H1793	0.683	0.694	0.64		0.788	0.953	1.07	0.762	0.718	1.13						0.906	0.734	0.7	0.843	0.515
NCI-H1944	0.876	1.16	0.757	0.785	0.815	0.391	0.394	0.395	0.407	0.376						0.611	0.62	0.579	0.586	0.496
NCI-H2170	0.823	0.901	0.744	0.748	0.882	0.575		0.533	0.598	0.726						0.271	0.202	0.273	0.25	0.275
NCI-H2342						0.419	0.398	0.46	0.455	0.458						0.801	0.702	0.774	0.76	0.727
SK-MES-1	0.835	0.916	0.8	0.924	1.02	0.728	0.73	0.642	0.685	0.899						1.07	0.983	0.877	0.74	0.253
SW 900						0.915	0.845	0.794	0.899	0.925						0.483	0.505		0.432	0.445
